# Non-standard residues stand in square brackets, D forms with d. No end group written: not given here. Sta = CC(C)C[C@H](N)[C@@H](O)CC(=O)O
# Target: β-Secretase (human, recombinant) (Homo sapiens, UniProt P56817)
# Assay: β-Secretase inhibitory activity assay (fluorescent substrate, HPLC peak area of degradative fragment)
# Type: biochemical
# Details: inhibitor 2 μg/ml; for Peak area ± S.D.: mean ± S.D. of triplicates
# Experimental: (§1) β-Secretase (human, recombinant), A fluorescent substrate [MOCAc-[…](Dnp) Arg-Arg-NH2] and a β-secretase inhibitor[[…]Sta-Val-Ala-Glu-Phe(Sta:(3S,4S)-4-amino-3-hydroxy-6-methylheptanoic acid)] Other reagents used in this study were analytical grade. Sesamin-sesamolin in different ratios prepared as per examples 10.
# (§2) Samples in a dimethylsulfoxide solution (2 μl), at an appropriate concentration, were diluted with 78 μl of assay buffer (20 mM acetate buffer, pH=4.5 containing 1% triton X-100) in a 96-well microplate. 10 μl of β-secretase solution in assay buffer (17.4 μg protein/ml) was added to the diluted solution, and incubated at 37° C. for 20 min. After incubation, 10 μl of substrate solution with assay buffer (0.1 mM) was added and incubated at 37° C. for 2 h. Fifty μl of reaction solution was then added to 450 μl of 2.5 M sodium acetate solution to terminate the reaction. The diluted solution was analyzed by HPLC applying the conditions listed below. Column: L-column ODS (Chemicals Evaluation and Research Institute, Tokyo, Japan, 4.6 i.d.×250 mm), mobile phase; 0.1% (v/v) formic acid/acetonitrile (0.1% (v/v) formic acid); 0 min (9:1), 17.5 min (5.5:4.5), 17.6 min (0.5:9.5), 22.5 min (0.5:9.5), column temperature: 40° C., flow rate; 1 ml/min, detection; fluorescent of excitation at 325 nm and emission at 395 nm, injection volume; 20 μl. The peak area of the peak derived from the degradative fluorescent fragment (retention time 15.7 min) was integrated and the peak area was found. The inhibitory activity of the sample was calculated using the following equation.
# Inhibition (%)=100−[(Peak area from sample group)/(Peak area from control group)×100]
# as §1, with “recombinant).” for “recombinant),”, “acid)].” for “acid)]”, “Essential oil of turmeric (EOT) with” for “Sesamin-sesamolin in”, “percentage of α-turmerone” for “ratios”, “2.” for “10.”
# as §2, with “temperature;” for “temperature:”
# β-Secretase (human, recombinant), A fluorescent substrate [MOCAc-[…](Dnp) Arg-Arg-NH2] and a β-secretase inhibitor[[…]Sta-Val-Ala-Glu-Phe(Sta:(3S,4S)-4-amino-3-hydroxy-6-methylheptanoic acid)]. Other reagents used in this study were analytical grade.
# Samples in a dimethylsulfoxide solution (2 μl), at an appropriate concentration, were diluted with […] of assay buffer (20 mM acetate buffer, pH=4.5 containing 1% triton X-100) in a 96-well microplate. 10 μl of β-secretase solution in assay buffer (17.4 μg protein/ml) was added to the diluted solution, and incubated at 37° C. for 20 min.
# Sequence of β-Secretase (human, recombinant) (P56817 46-501): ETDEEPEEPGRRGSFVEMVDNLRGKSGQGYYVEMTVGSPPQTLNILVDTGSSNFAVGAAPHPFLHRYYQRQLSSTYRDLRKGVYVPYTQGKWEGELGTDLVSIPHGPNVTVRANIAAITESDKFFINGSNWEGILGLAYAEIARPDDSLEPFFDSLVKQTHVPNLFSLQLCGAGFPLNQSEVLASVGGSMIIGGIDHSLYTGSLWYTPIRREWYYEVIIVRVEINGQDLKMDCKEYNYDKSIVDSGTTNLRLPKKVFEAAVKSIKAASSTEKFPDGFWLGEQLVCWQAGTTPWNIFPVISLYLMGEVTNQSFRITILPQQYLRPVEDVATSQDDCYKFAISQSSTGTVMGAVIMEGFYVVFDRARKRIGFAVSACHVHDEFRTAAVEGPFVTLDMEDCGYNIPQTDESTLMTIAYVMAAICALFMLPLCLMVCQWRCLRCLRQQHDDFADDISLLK
substance,measurement,setting,value
KTEEISEVN[Sta]VAEF [Inhibitor],Inhibition (%),Example 17,47.33%
same,Peak area ± S.D.,Example 17,2256512 ± 24323
same,Inhibition (%),Example 18,45.67%
same,Peak area ± S.D.,Example 18,2386115 ± 25498
same,Inhibition (%),Example 19,48.31%
same,Peak area ± S.D.,Example 19,2418426 ± 23621
same,Inhibition (%),Example 20,48.8%
same,Peak area ± S.D.,Example 20,2299129 ± 25842
same,Inhibition (%),Example 22,45.77%
same,Peak area ± S.D.,Example 22,2385632 ± 27453
